Results published in BindingDB's records for PubMed 11602678 (Otsuka Maryland Research Institute, 2001).

Legend:
[1] = target: T1, Alpha-2C adrenergic receptor (Rattus norvegicus, UniProt P22086)
T1 sequence (P22086 whole entry): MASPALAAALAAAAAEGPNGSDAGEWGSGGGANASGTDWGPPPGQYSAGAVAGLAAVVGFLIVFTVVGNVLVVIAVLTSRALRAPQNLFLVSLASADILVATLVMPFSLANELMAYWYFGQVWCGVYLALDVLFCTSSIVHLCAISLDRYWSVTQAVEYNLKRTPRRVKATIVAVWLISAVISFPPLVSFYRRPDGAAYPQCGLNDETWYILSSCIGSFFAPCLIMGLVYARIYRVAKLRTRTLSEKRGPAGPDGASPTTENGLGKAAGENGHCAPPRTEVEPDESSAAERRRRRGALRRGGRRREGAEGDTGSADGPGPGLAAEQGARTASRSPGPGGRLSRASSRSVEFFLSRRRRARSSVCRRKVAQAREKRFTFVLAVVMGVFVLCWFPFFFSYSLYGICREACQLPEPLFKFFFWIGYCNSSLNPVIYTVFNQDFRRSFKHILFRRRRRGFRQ

[2] = target: T2, Alpha-2A adrenergic receptor [16-465] (Rattus norvegicus, UniProt P22909)
T2 construct: 16-465
T2 sequence (P22909 whole entry): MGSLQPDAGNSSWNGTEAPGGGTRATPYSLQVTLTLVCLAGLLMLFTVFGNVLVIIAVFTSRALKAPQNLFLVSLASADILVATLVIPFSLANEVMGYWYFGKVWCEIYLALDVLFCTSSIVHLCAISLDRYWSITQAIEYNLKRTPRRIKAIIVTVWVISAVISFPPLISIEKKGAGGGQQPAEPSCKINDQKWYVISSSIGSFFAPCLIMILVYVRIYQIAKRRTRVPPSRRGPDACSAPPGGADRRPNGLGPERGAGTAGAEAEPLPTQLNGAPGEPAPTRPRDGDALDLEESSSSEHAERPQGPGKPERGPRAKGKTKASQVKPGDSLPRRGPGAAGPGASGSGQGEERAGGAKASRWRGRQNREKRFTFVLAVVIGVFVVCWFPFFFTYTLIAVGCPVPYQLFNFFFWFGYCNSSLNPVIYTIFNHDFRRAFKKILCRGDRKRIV

Ki [1]: 0.0137 µM
Ki [2]: 3.84 µM
Structure (SMILES): CCC(=O)Nc1c(C)cc(C(=O)N2CCC(N(C)CCc3ccccc3)CC2)cc1C [NSC_219019]
